Measurements reported in US10023570B2 (Array BioPharma, Inc., priority 2015, dated 2018).

Target: human KDR protein in HEK-293 cells (Homo sapiens (Human), UniProt P35968)
Assay: KDR Cell Assay (phospho-KDR in HEK-293 cells expressing inducible KDR)
Assay type: cell-based
Settings: pKDR Cell HEK 10% FBS IC50, HEK-293 cells expressing inducible KDR, VEGF stimulated
In short: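 HEK-293 cells with inducible human KDR were treated with compound for 1 h in DMEM (0.25% DMSO final), then lysed. Phospho-KDR was quantified by Meso Scale immunoassay, expressed as percent of control, and IC50 taken where a 4-parameter logistic fit crossed 50 POC.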

Chain of human KDR protein in HEK-293 cells (P35968 20-1356): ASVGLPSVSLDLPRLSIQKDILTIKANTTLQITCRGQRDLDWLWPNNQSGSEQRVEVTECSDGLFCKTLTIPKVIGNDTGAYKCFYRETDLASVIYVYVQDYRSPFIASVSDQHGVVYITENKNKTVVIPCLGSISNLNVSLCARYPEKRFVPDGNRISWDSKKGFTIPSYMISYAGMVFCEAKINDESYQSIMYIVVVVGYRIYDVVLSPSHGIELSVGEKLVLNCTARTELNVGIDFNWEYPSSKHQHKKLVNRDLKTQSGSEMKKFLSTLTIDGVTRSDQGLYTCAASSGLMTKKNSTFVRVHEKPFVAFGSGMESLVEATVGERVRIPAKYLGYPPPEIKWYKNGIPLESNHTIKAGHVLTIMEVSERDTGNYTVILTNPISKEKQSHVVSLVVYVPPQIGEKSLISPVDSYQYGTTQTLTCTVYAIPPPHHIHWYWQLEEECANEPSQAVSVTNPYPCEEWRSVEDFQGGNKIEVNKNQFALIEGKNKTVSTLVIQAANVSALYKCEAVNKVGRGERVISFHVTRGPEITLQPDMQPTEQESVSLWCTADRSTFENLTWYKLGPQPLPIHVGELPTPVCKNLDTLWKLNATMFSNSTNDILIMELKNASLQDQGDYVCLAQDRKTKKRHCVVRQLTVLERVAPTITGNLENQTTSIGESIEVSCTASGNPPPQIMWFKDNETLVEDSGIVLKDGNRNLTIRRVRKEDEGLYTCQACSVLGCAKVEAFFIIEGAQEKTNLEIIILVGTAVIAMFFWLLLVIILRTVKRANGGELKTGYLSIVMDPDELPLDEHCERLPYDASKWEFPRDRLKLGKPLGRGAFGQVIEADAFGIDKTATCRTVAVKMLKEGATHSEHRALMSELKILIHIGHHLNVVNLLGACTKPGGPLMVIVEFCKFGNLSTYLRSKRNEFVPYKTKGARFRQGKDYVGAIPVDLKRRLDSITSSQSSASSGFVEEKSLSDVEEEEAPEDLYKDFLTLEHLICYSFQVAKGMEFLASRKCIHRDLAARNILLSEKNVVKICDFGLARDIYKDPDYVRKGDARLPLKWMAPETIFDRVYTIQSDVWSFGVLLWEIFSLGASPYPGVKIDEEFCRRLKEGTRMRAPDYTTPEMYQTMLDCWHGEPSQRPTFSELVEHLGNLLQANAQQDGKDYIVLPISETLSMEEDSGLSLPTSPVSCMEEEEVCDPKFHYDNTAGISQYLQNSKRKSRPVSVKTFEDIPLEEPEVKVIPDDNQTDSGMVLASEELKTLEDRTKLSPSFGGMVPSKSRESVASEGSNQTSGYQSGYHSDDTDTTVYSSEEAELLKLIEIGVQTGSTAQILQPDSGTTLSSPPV

SMILES | IC50 [nM]
Cn1cc(-c2cc(-c3ccc(N4CCN(Cc5cnccn5)CC4)nc3)c3c(C#N)cnn3c2)cn1 [Example 453] | 1680
CCn1cc(CN2CCN(c3ccc(-c4cc(-c5cnn(C)c5)cn5ncc(C#N)c45)cn3)CC2)cn1 [Example 446, 4-(6-(4-((1-ethyl-1H-pyrazol-4-yl)methyl)piperazin-1-yl)pyridin-3-yl)-6-(1-methyl-1H-pyrazol-4-yl)pyrazolo[1,5-a]pyridine-3-carbonitrile] | 1470
Cn1cc(-c2cc(-c3ccc(N4CCN(C(=O)N5CC[C@@H](c6ccccc6)C5)CC4)nc3)c3c(C#N)cnn3c2)cn1 [Example 375, (S)-6-(1-methyl-1H-pyrazol-4-yl)-4-(6-(4-(3-phenylpyrrolidine-1-carbonyl)piperazin-1-yl)pyridin-3-yl)pyrazolo[1,5-a]pyridine-3-carbonitrile] | 841
Cn1cc(-c2cc(-c3ccc(N4CCN(C5CCOC5)CC4)nc3)c3c(C#N)cnn3c2)cn1 (stereo not drawn) [Example 505, 6-(1-methyl-1H-pyrazol-4-yl)-4-(6-(4-(tetrahydrofuran-3-yl)piperazin-1-yl)pyridin-3-yl)pyrazolo[1,5-a]pyridine-3-carbonitrile bis(2,2,2-trifluoroacetate)] | 1300
Cn1cc(-c2cc(-c3ccc(N4CCC5(CCCN(C(=O)OC(C)(C)C)C5)C4)nc3)c3c(C#N)cnn3c2)cn1 (stereo not drawn) [Example 518, tert-butyl 2-(5-(3-cyano-6-(1-methyl-1H-pyrazol-4-yl)pyrazolo[1,5-a]pyridin-4-yl)pyridin-2-yl)-2,7-diazaspiro[4.5]decane-7-carboxylate] | 4630
Cn1cc(-c2cc(-c3ccc(N4C5CCC4CN(Cc4ccccc4)C5)nc3)c3c(C#N)cnn3c2)cn1 [Example 491, 4-(6-(3-benzyl-3,8-diazabicyclo[3.2.1]octan-8-yl)pyridin-3-yl)-6-(1-methyl-1H-pyrazol-4-yl)pyrazolo[1,5-a]pyridine-3-carbonitrile] | 120
Cn1ccc(-c2cc(-c3ccc(N4CCN(Cc5ccccn5)CC4)nc3)c3c(C#N)cnn3c2)n1 [Example 588, 6-(1-methyl-1H-pyrazol-3-yl)-4-(6-(4-(pyridine-2-ylmethyl)piperazin-1-yl)pyridin-3-yl)pyrazolo[1,5-a]pyridine-3-carbonitrile] | ≥ 5000
Cc1cccnc1CN1CCN(c2ccc(-c3cc(-c4cnn(C)c4)cn4ncc(C#N)c34)cn2)CC1 [Example 438, 6-(1-methyl-1H-pyrazol-4-yl)-4-(6-(4-((3-methylpyridin-2-yl)methyl)piperazin-1-yl)pyridine-3-yl)pyrazolo[1,5-a]pyridine-3-carbonitrile] | 1990
Cn1cc(-c2cc(-c3ccc(N4CCN(Cc5ncccn5)CC4)nc3)c3c(C#N)cnn3c2)cn1 [Example 472, 6-(1-methyl-1H-pyrazol-4-yl)-4-(6-(4-(pyrimidin-2-ylmethyl)piperazin-1-yl)pyridin-3-yl)pyrazolo[1,5-a]pyridine-3-carbonitrile] | 1770
CC(C)n1cc(CN2CCN(c3ccc(-c4cc(-c5cnn(C)c5)cn5ncc(C#N)c45)cn3)CC2)cn1 [Example 445, 4-(6-(4-((1-isopropyl-1H-pyrazol-4-yl)methyl)piperazin-1-yl)pyridin-3-yl)-6-(1-methyl-1H-pyrazol-4-yl)pyrazolo[1,5-a]pyridine-3-carbonitrile] | 1660
Cn1cc(-c2cc(-c3ccc(N4CCN(Cc5ccccc5)CC4)nc3)c3c(C#N)cnn3c2)c(C2CC2)n1 [Example 619, 4-(6-(4-benzylpiperazin-1-yl)pyridin-3-yl)-6-(3-cyclopropyl-1-methyl-1H-pyrazol-4-yl)pyrazolo[1,5-a]pyridine-3-carbonitrile] | ≥ 5000
CCc1cnn2cc(-c3cnn(C)c3)cc(-c3ccc(N4CCN(C(=O)[C@H](O)c5ccccc5)CC4)nc3)c12 [Example 658, (R)-1-(4-(5-(3-ethyl-6-(1-methyl-1H-pyrazol-4-yl)pyrazolo[1,5-a]pyridin-4-yl)pyridin-2-yl)piperazin-1-yl)-2-hydroxy-2-phenylethanone] | 1840
Cn1cc(-c2cc(-c3ccc(N4CCC(Oc5ccccc5)CC4)nc3)c3c(C#N)cnn3c2)cn1 [Example 508] | 2.9
CN(C)c1ccccc1CN1CCN(c2ccc(-c3cc(-c4cnn(C)c4)cn4ncc(C#N)c34)cn2)CC1 [Example 460, 4-(6-(4-(2-(dimethylamino)benzyl)piperazin-1-yl)pyridin-3-yl)-6-(1-methyl-1H-pyrazol-4-yl)pyrazolo[1,5-a]pyridine-3-carbonitrile] | 1780
Cn1cc(-c2cc(-c3ccc(N4CCC5(CN(C(=O)OC(C)(C)C)C5)C4)nc3)c3c(C#N)cnn3c2)cn1 [Example 521, tert-butyl 6-(5-(3-cyano-6-(1-methyl-1H-pyrazol-4-yl)pyrazolo[1,5-a]pyridin-4-yl)pyridin-2-yl)-2,6-diazaspiro[3.4]octane-2-carboxylate] | 675

Same assay, conditions: pKDR Cell HEK 10% FBS IC50, HEK-293 cells expressing inducible KDR, VEGF stimulated, 10% FBS

SMILES | IC50 [nM]
CO[C@H](C(=O)N1CCN(c2ccc(-c3cc(-c4cnn(C)c4)cn4ncc(C#N)c34)cn2)CC1)c1ccccc1 [Example 84] | 1260
Cn1cc(-c2cc(-c3ccc(N4CCN(S(C)(=O)=O)CC4)cc3)c3c(C#N)cnn3c2)cn1 [Example 297, 6-(1-methyl-1H-pyrazol-4-yl)-4-(4-(4-(methylsulfonyl)piperazin-1-yl)phenyl)pyrazolo[1,5-a]pyridine-3-carbonitrile] | 189
Cn1cc(-c2cc(-c3ccc(N4CCN(C(=O)C5CC5)CC4)nc3)c3c(C#N)cnn3c2)cn1 [Example 68, 4-(6-(4-(cyclopropanecarbonyl)piperazin-1-yl)pyridin-3-yl)-6-(1-methyl-1H-pyrazol-4-yl)pyrazolo[1,5-a]pyridine-3-carbonitrile] | 789
CC(C)OC(=O)N1CC2(CCN(c3ccc(-c4cc(-c5cnn(C)c5)cn5ncc(C#N)c45)cn3)CC2)C1 [Example 222, isopropyl 7-(5-(3-cyano-6-(1-methyl-1H-pyrazol-4-yl)pyrazolo[1,5-a]pyridin-4-yl)pyridin-2-yl)-2,7-diazaspiro[3.5]nonane-2-carboxylate] | 257
CO[C@H]1C[C@@H](NC(=O)C2CCN(c3ccc(-c4cc(-c5cnn(C)c5)cn5ncc(C#N)c45)cn3)CC2)C1 [Example 241, 1-(5-(3-cyano-6-(1-methyl-1H-pyrazol-4-yl)pyrazolo[1,5-a]pyridin-4-yl)pyridin-2-yl)-N-((1s,3s)-3-methoxycyclobutyl) piperidine-4-carboxamide] | 1840
CC(C)O[C@H]1CCN(C(=O)N2CCN(c3ccc(-c4cc(-c5cnn(C)c5)cn5ncc(C#N)c45)cn3)CC2)C1 [Example 108, (S)-4-(6-(4-(3-isopropoxypyrrolidine-1-carbonyl)piperazin-1-yl)pyridin-3-yl)-6-(1-methyl-1H-pyrazol-4-yl)pyrazolo[1,5-a]pyridine-3-carbonitrile] | 531
Cn1cc(-c2cc(-c3ccc(N4CCCC4)nc3)c3c(Cl)cnn3c2)cn1 [Example 339, 3-chloro-6-(1-methyl-1H-pyrazol-4-yl)-4-(6-(pyrrolidin-1-yl)pyridin-3-yl)pyrazolo[1,5-a]pyridine] | 3700
Cn1cc(-c2cc(-c3ccc(N4CCN(CC(=O)N5CCCC5)CC4)nc3)c3c(C#N)cnn3c2)cn1 [Example 145, 6-(1-methyl-1H-pyrazol-4-yl)-4-(6-(4-(2-oxo-2-(pyrrolidin-1-yl)ethyl)piperazin-1-yl)pyridin-3-yl)pyrazolo[1,5-a]pyridine-3-carbonitrile 2,2,2-trifluoroacetate] | 682
Cn1cc(-c2cc(-c3ccc(N4CCN(C(=O)[C@H](O)c5ccccc5)CC4)nc3)c3ccnn3c2)cn1 [Example 313, (R)-2-hydroxy-1-(4-(5-(6-(1-methyl-1H-pyrazol-4-yl)pyrazolo[1,5-a]pyridin-4-yl)pyridin-2-yl)piperazin-1-yl)-2-phenylethanone] | ≥ 5000
C[C@H](C(=O)N1CCN(c2ccc(-c3cc(-c4cnn(C)c4)cn4ncc(C#N)c34)cn2)CC1)c1ccccc1 [Example 15, (S)-6-(1-methyl-1H-pyrazol-4-yl)-4-(6-(4-(2-phenylpropanoyl)piperazin-1-yl)pyridin-3-yl)pyrazolo[1,5-a]pyridine-3-carbonitrile] | 643
COCCn1ccc(C(=O)N2CCN(c3ccc(-c4cc(-c5cnn(C)c5)cn5ncc(C#N)c45)cn3)CC2)n1 [Example 366, 4-(6-(4-(1-(2-methoxyethyl)-1H-pyrazole-3-carbonyl)piperazin-1-yl)pyridin-3-yl)-6-(1-methyl-1H-pyrazol-4-yl)pyrazolo[1,5-a]pyridine-3-carbonitrile bis(2,2,2-trifluoroacetate)] | 422
CO[C@H]1CCN(C(=O)N2CCN(c3cnc(-c4cc(-c5cnn(C)c5)cn5ncc(C#N)c45)cn3)CC2)C1 [Example 289, (S)-4-(5-(4-(3-methoxypyrrolidine-1-carbonyl)piperazin-1-yl)pyrazin-2-yl)-6-(1-methyl-1H-pyrazol-4-yl)pyrazolo[1,5-a]pyridine-3-carbonitrile] | 229
C[C@@H](O)Cn1cc(-c2cc(-c3ccc(N4CCN(C(=O)CC(C)(C)C)CC4)cc3)c3c(C#N)cnn3c2)cn1 [Example 305, (R)-4-(4-(4-(3,3-dimethylbutanoyl)piperazin-1-yl)phenyl)-6-(1-(2-hydroxypropyl)-1H-pyrazol-4-yl)pyrazolo[1,5-a]pyridine-3-carbonitrile] | 1490
Cn1cc(-c2cc(-c3ccc(N4CCN(CCc5ccc(Cl)cc5)CC4)nc3)c3c(C#N)cnn3c2)cn1 [Example 140, 4-(6-(4-(4-chlorophenethyl)piperazin-1-yl)pyridin-3-yl)-6-(1-methyl-1H-pyrazol-4-yl)pyrazolo[1,5-a]pyridine-3-carbonitrile] | 712
Cn1cc(C(=O)N2CCN(c3ccc(-c4cc(-c5cnn(C)c5)cn5ncc(C#N)c45)cn3)CC2)cn1 [Example 35, 6-(1-methyl-1H-pyrazol-4-yl)-4-(6-(4-(1-methyl-1H-pyrazole-4-carbonyl)piperazin-1-yl)pyridin-3-yl)pyrazolo[1,5-a]pyridine-3-carbonitrile 2,2,2-trifluoroacetate] | 437
